Molecules are shown by their SMILES. pIC50: −log10 of the molar value.

The source of these data is ChEMBL document CHEMBL4483862, “Open-source discovery of chemical leads for next-generation chemoprotective antimalarials” (2018).

For the test, the system named is Plasmodium berghei. Description: Luciferase/luciferin-expressing antifolate-resistant parasites were used to infect a culture of HepG2 cells that were pre-incubated with compounds. Infected hepatocytes emit light due to the luciferase reaction. Assay results are presented as the percent inhibition of light emission compared to control. […]. The format is functional. Particulars: sporozoite; for pIC50: read-out: LUCIFERASE INFECTION ASSAY - IC50; for IC90: read-out: LUCIFERASE INFECTION ASSAY - IC90.

Regarding `Cc1ccc(-c2nnc(NC(=O)c3cccc(S(=O)(=O)N4CCc5ccccc54)c3)[nH]2)cc1`, the negative-log IC50 (pIC50) – broadly, −log10 of the IC50, conventionally taken in molar units – was 5.07 and the IC90 – broadly, the concentration at which the effect reaches the 90% level – is greater than 10 µM.

`N#Cc1cccnc1N1CCN(C(=O)c2cc(-c3ccccc3)nn2-c2ccccc2)CC1`: the pIC50 is less than 5.00 and the IC90 is greater than 10 µM.

Turning to `COc1ccc(C(=O)N2CCN(C(c3ccc(F)cc3)c3ccc(F)cc3)CC2)cc1S(=O)(=O)NCCN(C)C`, the pIC50 was less than 5.00 and the IC90 is greater than 10 µM.

As to `CC(OC(=O)c1ccccc1O)C(N)=O` (stereo not given), the pIC50 is less than 5.00 and the concentration for an effect of 90% (IC90) is greater than 10 µM.

As to `CCCCNC(=O)CN1CCN(C(=O)Cc2c(C)nc3ccccc3c2C)CC1`, the pIC50 is less than 5.00 and the IC90 is greater than 10 µM.

Regarding `COc1ccc(Cl)cc1NC(=O)C(C)NCC(c1ccccc1)c1c[nH]c2ccccc12` (stereo not given), the pIC50 is 5.19 and the IC90 was greater than 10 µM.

`O=C(CSc1ncnc2ccccc12)NN1C(=O)NC(c2ccccc2)(c2ccccc2)C1=O`: the pIC50 is less than 5.00 and the IC90 was greater than 10 µM.

In the case of `CCc1cccc2c(C(=O)CN3CCC(C(=O)Nc4ccc5c(c4)OCO5)CC3)c[nH]c12`, the pIC50 is less than 5.00 and the IC90 is greater than 10 µM.

As for `O=C(c1ccc(Cl)cc1)N1CCCC(C(=O)N2CCN(Cc3ccc4c(c3)CCO4)CC2)C1` (stereo not given), the negative-log IC50 (pIC50) is less than 5.00 and the IC90 was greater than 10 µM.

With `CN(CC(=O)N1CCN(C(c2ccc(F)cc2)c2ccc(F)cc2)CC1)C1=NS(=O)(=O)c2ccccc21`, the pIC50 was less than 5.00 and the IC90 is greater than 10 µM.

Take `CCn1nc(C(=O)OCC(=O)Nc2cc(S(=O)(=O)N3CCCCC3)ccc2Cl)c2ccccc2c1=O`: the pIC50 was less than 5.00 and the IC90 was greater than 10 µM.

With `COc1ccc(N(C)S(=O)(=O)c2cccc(C(=O)Nc3ccc(Br)c(C(F)(F)F)c3)c2)cc1`, the negative-log IC50 (pIC50) is less than 5.00 and the IC90 is greater than 10 µM.

Take `CCCCCn1nc(C(=O)N2CCN(Cc3nc4ccccc4s3)CC2)c2ccccc2c1=O`: the negative-log IC50 (pIC50) was less than 5.00 and the IC90 was greater than 10 µM.

With `Cc1nn(Cc2nc3ccccc3s2)c(C)c1S(=O)(=O)N(C)Cc1ccco1`, the negative logarithm of the IC50 (pIC50) was less than 5.00 and the IC90 is greater than 10 µM.

Consider `Cc1nc(-c2ccc(CCNC(=O)CN3C(=O)NC(C)(c4ccc5ccccc5c4)C3=O)cc2)cs1` (stereo not given), for which the pIC50 was less than 5.00 and the IC90 was greater than 10 µM.

In the case of `COc1ccc2cc(C3(C)NC(=O)N(Cc4nc(N)nc(Nc5ccc(F)cc5)n4)C3=O)ccc2c1` (stereo not given), the pIC50 was less than 5.00 and the IC90 is greater than 10 µM.

Take `CCCC(=O)Nc1ccc(-c2csc(NC(=O)c3cc(C)oc3C)n2)cc1`: the pIC50 was less than 5.00 and the concentration for an effect of 90% (IC90) was greater than 10 µM.

Regarding `O=C(Cn1c(=O)ccn(Cc2ccccc2)c1=O)N1CCC(n2c(=O)[nH]c3ccccc32)CC1`, the pIC50 was less than 5.00 and the IC90 is greater than 10 µM.

`O=C(CN1CCN(C(=O)C23CC4CC(CC(C4)C2)C3)CC1)c1ccc[nH]1`: the negative-log IC50 (pIC50) was less than 5.00 and the concentration for an effect of 90% (IC90) was greater than 10 µM.

Turning to `Cc1nn(CC(=O)NC(C)c2cc3ccccc3o2)c(C)c1S(=O)(=O)N1CCc2ccccc21` (stereo not given), the pIC50 was less than 5.00 and the IC90 is greater than 10 µM.

With `O=S(=O)(c1ccc(Br)s1)N(c1ccc2c(c1)OC1(CCCC1)O2)S(=O)(=O)c1ccc(Br)s1`, the pIC50 was 5.30 and the concentration for an effect of 90% (IC90) is greater than 10 µM.

As to `CCC(OC(=O)c1cc2ccccc2[nH]1)C(=O)Nc1cc(C)on1` (stereo not given), the negative-log IC50 (pIC50) is less than 5.00 and the IC90 was greater than 10 µM.

`CCCCC(CC)Cn1c(SCc2nc(N)nc(N)n2)nnc1-c1ccc(Cl)cc1` (stereo not given): the pIC50 was less than 5.00 and the IC90 was greater than 10 µM.

In the case of `O=C(Nc1ccccc1)N1CCC(C(=O)N2CCN(C(=O)c3ccccc3Cl)CC2)CC1`, the pIC50 was less than 5.00 and the IC90 is greater than 10 µM.

As to `CCOC(=O)C1=C(CN2CCN(C(c3ccc(F)cc3)c3ccc(F)cc3)CC2)NC(=O)NC1CC` (stereo not given), the pIC50 was less than 5.00 and the IC90 is greater than 10 µM.

Regarding `O=c1[nH]nc(SCc2ccc([N+](=O)[O-])cc2)n1CC1CCCO1` (stereo not given), the pIC50 is less than 5.00 and the IC90 is greater than 10 µM.

For the molecule `Cc1cccc2c(=O)n(CC(=O)NCCCCOc3ccc(F)cc3)cnc12`, the pIC50 was less than 5.00 and the IC90 is greater than 10 µM.

On to `O=C(Cc1csc(N2CCCC2=O)n1)Nc1nc(-c2ccc3c(c2)CCCC3)cs1`, for which the pIC50 was less than 5.00 and the IC90 is greater than 10 µM.

As to `Cc1cc(C)c(CNC(=O)N(C)Cc2cn(-c3ccccc3)nc2-c2ccccc2)c(=O)[nH]1`, the pIC50 was less than 5.00 and the IC90 was greater than 10 µM.

For `COc1ccc2c(COC(=O)c3[nH]c(C)c(C(C)=O)c3C)cc(=O)oc2c1`, the pIC50 was less than 5.00 and the IC90 is greater than 10 µM.

Regarding `O=C(NC1CCS(=O)(=O)c2ccccc21)C1CCN(c2ncc(C(F)(F)F)cc2Cl)CC1` (stereo not given), the pIC50 is less than 5.00 and the IC90 is greater than 10 µM.

In the case of `Cn1c(CNC(=O)c2cc(-c3ccccc3)c(N3CCOCC3)s2)nc2ccccc21`, the pIC50 was less than 5.00 and the IC90 is greater than 10 µM.

For the molecule `CCOc1ccc(Oc2ccc(Cl)cc2NCC(=O)N(C)CC(=O)NC(C)C)cc1`, the pIC50 was less than 5.00 and the IC90 is greater than 10 µM.

In the case of `CC(=O)NCCc1ccc(C(=O)COC(=O)c2cc(C(C)C)cc(C(C)C)c2O)s1`, the negative logarithm of the IC50 (pIC50) was less than 5.00 and the IC90 is greater than 10 µM.

With `O=S(=O)(Cc1ccccc1)N1CCN(c2ncnc3sc(-c4ccccc4)cc23)CC1`, the pIC50 is less than 5.00 and the IC90 was greater than 10 µM.

Turning to `CC(=O)N(c1nc(/C=C2\NC(=S)NC2=O)cs1)c1c(C)cccc1C`, the pIC50 is 5.08 and the IC90 is greater than 10 µM.

For the molecule `CCOc1ccc(-c2nnc(SCC(=O)Nc3ccccc3C(=O)NCc3ccccc3)o2)cc1`, the pIC50 was 5.35 and the concentration for an effect of 90% (IC90) was greater than 10 µM.

For the molecule `O=C(NCc1cn2ccccc2n1)c1cccc(S(=O)(=O)N2CCc3ccccc3C2)c1`, the negative-log IC50 (pIC50) was less than 5.00 and the IC90 is greater than 10 µM.

Consider `COc1ccc(-c2noc(CCCCCNC(=O)c3ccc(-n4cnnn4)cc3)n2)cc1`, for which the pIC50 was less than 5.00 and the IC90 is greater than 10 µM.

Turning to `Cn1cc(/C=C/C(=O)Nc2nc(-c3ccc4c(c3)OCCO4)cs2)cn1`, the pIC50 is 5.00 and the IC90 was greater than 10 µM.

As for `CN(Cc1nc2ccccc2s1)C(=O)c1cc(-c2ccccc2)c(N2CCOCC2)s1`, the pIC50 is less than 5.00 and the IC90 is greater than 10 µM.

For the molecule `O=C(CSc1ccc(S(=O)(=O)N2CCOCC2)cn1)NC(c1ccccc1)c1cccs1` (stereo not given), the negative-log IC50 (pIC50) was less than 5.00 and the IC90 is greater than 10 µM.

For `COc1cc(C(=O)OC(C)C(=O)Nc2sccc2C(N)=O)ccc1C` (stereo not given), the negative logarithm of the IC50 (pIC50) was less than 5.00 and the IC90 was greater than 10 µM.

As to `CCOc1ccccc1NC(=O)C(c1ccccc1)N1CCC(n2c(=O)[nH]c3ccccc32)CC1` (stereo not given), the pIC50 is 5.28 and the IC90 is greater than 10 µM.

Regarding `CCCCn1nnnc1CSc1nnc(-c2ccccc2F)n1Cc1ccccc1`, the pIC50 was less than 5.00 and the IC90 was greater than 10 µM.

Regarding `Cc1cnc(NC(=O)CSCc2cccs2)s1`, the pIC50 was less than 5.00 and the IC90 was greater than 10 µM.

On to `N#Cc1ccc(C=C2C(=O)Nc3ccccc3NC2=O)cc1`, for which the pIC50 was less than 5.00 and the IC90 is greater than 10 µM.

In the case of `Cc1cc(C)c2c(C)c(C(=O)Nc3cc(S(=O)(=O)N4CCCCC4)ccc3N(C)C)sc2n1`, the pIC50 is 5.18 and the IC90 is greater than 10 µM.

Take `CC(CCc1ccccc1)NC(=O)CN1CCN(C/C=C/c2ccccc2)CC1` (stereo not given): the pIC50 was less than 5.00 and the IC90 was greater than 10 µM.

`COc1ccc(S(=O)(=O)N(C)CC2COc3ccccc3O2)cc1` (stereo not given): the pIC50 was less than 5.00 and the IC90 was greater than 10 µM.

For `Cc1ccc(-c2csc3ncn(CC(=O)c4cc(C)n(C5CCS(=O)(=O)C5)c4C)c(=O)c23)cc1` (stereo not given), the pIC50 is less than 5.00 and the 90% effect concentration (IC90) is greater than 10 µM.

Regarding `CC(=O)Nc1ccccc1OCC(=O)NC(=O)NC(C)C1CC2CCC1C2` (stereo not given), the pIC50 was 5.24 and the IC90 is greater than 10 µM.

Regarding `CN1CCc2nc(NC(=O)C3CCN(c4ncc(C(F)(F)F)cc4Cl)CC3)sc2C1`, the pIC50 was less than 5.00 and the 90% effect concentration (IC90) is greater than 10 µM.

As for `COC(=O)c1cc(Br)ccc1NC(=O)c1cccc(S(=O)(=O)N(Cc2ccccc2)c2ccccc2Cl)c1`, the pIC50 is less than 5.00 and the IC90 was greater than 10 µM.

For `COc1ccc(-c2cc(C(=O)NNC(=O)CC(C)C)[nH]n2)cc1`, the pIC50 was less than 5.00 and the IC90 was greater than 10 µM.

Take `CC(=O)Nc1cccc(C(=O)Nn2cnc3ccccc3c2=O)c1`: the pIC50 is less than 5.00 and the IC90 is greater than 10 µM.

`Cc1cc2nnc(SC(C)C(=O)Nc3ccc([N+](=O)[O-])cc3C(F)(F)F)n2c2ccccc12` (stereo not given): the negative logarithm of the IC50 (pIC50) is less than 5.00 and the IC90 is greater than 10 µM.

Take `O=C(COc1cc(N2CCCC2=O)ccc1[N+](=O)[O-])NCc1ccco1`: the pIC50 was less than 5.00 and the IC90 is greater than 10 µM.

For the molecule `COC(=O)c1cc(OC)c(OC)cc1NC(=O)c1ccc(-c2cccc(Br)c2)nc1C`, the negative-log IC50 (pIC50) was less than 5.00 and the IC90 is greater than 10 µM.

For `CCN(CC)S(=O)(=O)c1ccc2[nH]c(=O)cc(C(=O)Nc3cc(Cl)c(OC)cc3OC)c2c1`, the pIC50 was less than 5.00 and the IC90 is greater than 10 µM.

With `Cc1nc(SCC(=O)c2ccc(N3CCCC3=O)cc2)c2c(C)c(C)sc2n1`, the pIC50 was 5.10 and the IC90 was greater than 10 µM.

With `COc1ccc2cc(C(=O)NNC(=O)c3ccccn3)c(C)nc2c1`, the negative logarithm of the IC50 (pIC50) was 5.08 and the IC90 was greater than 10 µM.

On to `O=C(CSc1nncn1C1CC1)Nc1sc2c(c1C(=O)Nc1ccc(Cl)cc1)CCCC2`, for which the negative-log IC50 (pIC50) was less than 5.00 and the IC90 was greater than 10 µM.

As to `CC1(c2ccc3ccccc3c2)NC(=O)N(CC(=O)NC(CN2CCOCC2)c2ccccc2)C1=O` (stereo not given), the negative logarithm of the IC50 (pIC50) was less than 5.00 and the IC90 was greater than 10 µM.

As to `O=C(NNC(=O)C12CC3CC(CC(C3)C1)C2)c1nn(-c2ccccc2)cc1O`, the pIC50 was 5.49 and the IC90 is 3.89 µM.
